{"source": "paper PMC7162859", "about": "(Scientific Reports, 2020)", "key": {"[1]": {"assay": "Brain distribution after single intraperitoneal dose in FVB wild-type, Bcrp1-/-, Mdr1a/b-/- and Mdr1a/b-/- Bcrp1-/- mice", "type": "in vivo, mouse (FVB)", "details": "for DA (Distribution advantage) / concentration at 2 h / concentration at 6 h / Kp at 2 h / Kp at 6 h: 10 mg/kg i.p.; for concentration at 2 h / concentration at 6 h / Kp at 2 h / Kp at 6 h: FVB, mouse, 10 mg/kg; for concentration at 2 h / concentration at 6 h: intraperitoneal; for Kp at 2 h / Kp at 6 h: brain/plasma, ip, read-out: Kp brain (Cbrain/Cplasma)", "method": "At 2 and 6 hours following administration of ispinesib, whole blood and brain samples were harvested, and blood samples were centrifuged for plasma separation. Additional details on the conduct of in vivo pharmacokinetic studies are described in the supplementary methods. The drug concentrations in all samples were measured by a specific and sensitive LC-MS/MS assay for ispinesib.\nKp=CbrainCplasma (Equation 4)\nDA= Kp, knockoutKp, wildtype (Equation 5)"}, "[2]": {"assay": "Rapid equilibrium dialysis for unbound fractions in mouse plasma and brain homogenate", "type": "in vitro ADME", "details": "FVB, 37 °C", "quoted_text": "Rapid equilibrium dialysis was used to determine unbound fractions with modifications[48],[49] to manufacturer’s protocol (Thermo Fisher Scientific). Mouse plasma and brain homogenates (in 3 volumes of PBS, w/v) were spiked with 0.1 mg/mL ispinesib to obtain final concentrations of 1 µM. 300 µL of drug-spiked matrices were placed in donor chamber, and 500 µL of PBS was placed in receiver chamber of inserts (8 kDa MWCO), in triplicates. The base plate with inserts was incubated on Bioshaker at 37 °C and 1000 rpm for 4 hours. Ispinesib concentrations in samples were analyzed by liquid-chromatography tandem mass-spectrometry (LC-MS/MS).\nThe unbound fractions of ispinesib in plasma and brain were determined by using rapid equilibrium dialysis (RED) technique, with some alterations ^1,2 to manufacturer’s protocol (Thermo Fisher Scientific). […] RED experiments were initially conducted at 1, 2, 5 and 10 µM concentrations of ispinesib with 4 and 6 hour time points. […] Consequently, unbound fractions at 1 µM concentration and 4 hr time point were utilized for estimation of Kp,uu and free concentrations of ispinesib. […] The samples collected from the donor and receiver chambers after dialysis for 4 hours were stored at -80°C and analyzed for ispinesib concentrations by LC-MS/MS analysis. […]"}}, "note": "Where two headings read alike, the source gives them in different places."}
{"smiles": "Cc1ccc(C(=O)N(CCCN)[C@@H](c2nc3cc(Cl)ccc3c(=O)n2Cc2ccccc2)C(C)C)cc1", "note": "[Ispinesib, N-(3-aminopropyl)-N-[(1 R)-1-(3-benzyl-7-chloro-4-oxoquinazolin-2-yl)-2-methylpropyl]-4-methylbenzamide]", "values": [{"measurement": "DA (Distribution advantage)", "setting": "[1]; 2 hrs, Bcrp1a/b-/-", "value": 1}, {"measurement": "DA (Distribution advantage)", "setting": "[1]; 2 hrs, Mdr1a/b-/-", "value": 3}, {"measurement": "DA (Distribution advantage)", "setting": "[1]; 2 hrs, Mdr1a/b-/- Bcrp1a/b-/-", "value": 28}, {"measurement": "DA (Distribution advantage)", "setting": "[1]; 2 hrs, Wild-type", "value": 1}, {"measurement": "DA (Distribution advantage)", "setting": "[1]; 6 hrs, Bcrp1a/b-/-", "value": 1}, {"measurement": "DA (Distribution advantage)", "setting": "[1]; 6 hrs, Mdr1a/b-/-", "value": 10}, {"measurement": "DA (Distribution advantage)", "setting": "[1]; 6 hrs, Mdr1a/b-/- Bcrp1a/b-/-", "value": 33}, {"measurement": "DA (Distribution advantage)", "setting": "[1]; 6 hrs, Wild-type", "value": 1}, {"measurement": "concentration at 2 h", "setting": "[1]; brain, 2 hrs, Bcrp1a/b-/-, read-out: Cbrain", "value": "140 ± 20", "unit": "ng/mL"}, {"measurement": "concentration at 2 h", "setting": "[1]; brain, 2 hrs, Mdr1a/b-/- Bcrp1a/b-/-, read-out: Cbrain", "value": "3770 ± 670", "unit": "ng/mL"}, {"measurement": "concentration at 2 h", "setting": "[1]; brain, 2 hrs, Mdr1a/b-/-, read-out: Cbrain", "value": "580 ± 140", "unit": "ng/mL"}, {"measurement": "concentration at 2 h", "setting": "[1]; brain, 2 hrs, Wild-type, read-out: Cbrain", "value": "180 ± 90", "unit": "ng/mL"}, {"measurement": "concentration at 6 h", "setting": "[1]; brain, 6 hrs, Bcrp1a/b-/-, read-out: Cbrain", "value": "150 ± 30", "unit": "ng/mL"}, {"measurement": "concentration at 6 h", "setting": "[1]; brain, 6 hrs, Mdr1a/b-/- Bcrp1a/b-/-, read-out: Cbrain", "value": "5590 ± 2850", "unit": "ng/mL"}, {"measurement": "concentration at 6 h", "setting": "[1]; brain, 6 hrs, Mdr1a/b-/-, read-out: Cbrain", "value": "1100 ± 100", "unit": "ng/mL"}, {"measurement": "concentration at 6 h", "setting": "[1]; brain, 6 hrs, Wild-type, read-out: Cbrain", "value": "140 ± 80", "unit": "ng/mL"}, {"measurement": "Kp at 2 h", "setting": "[1]; 2 hrs, Bcrp1a/b-/-", "value": 0.08}, {"measurement": "Kp at 2 h", "setting": "[1]; 2 hrs, Mdr1a/b-/- Bcrp1a/b-/-", "value": 3.07}, {"measurement": "Kp at 2 h", "setting": "[1]; 2 hrs, Mdr1a/b-/-", "value": 0.35}, {"measurement": "Kp at 2 h", "setting": "[1]; 2 hrs, Wild-type", "value": 0.11}, {"measurement": "Kp at 6 h", "setting": "[1]; 6 hrs, Bcrp1a/b-/-", "value": 0.15}, {"measurement": "Kp at 6 h", "setting": "[1]; 6 hrs, Mdr1a/b-/- Bcrp1a/b-/-", "value": 5.2}, {"measurement": "Kp at 6 h", "setting": "[1]; 6 hrs, Mdr1a/b-/-", "value": 1.52}, {"measurement": "Kp at 6 h", "setting": "[1]; 6 hrs, Wild-type", "value": 0.16}, {"measurement": "concentration at 2 h", "setting": "[1]; plasma, 2 hrs, Bcrp1a/b-/-, read-out: Cplasma", "value": "1740 ± 420", "unit": "ng/mL"}, {"measurement": "concentration at 2 h", "setting": "[1]; plasma, 2 hrs, Mdr1a/b-/- Bcrp1a/b-/-, read-out: Cplasma", "value": "1590 ± 1070", "unit": "ng/mL"}, {"measurement": "concentration at 2 h", "setting": "[1]; plasma, 2 hrs, Mdr1a/b-/-, read-out: Cplasma", "value": "1750 ± 730", "unit": "ng/mL"}, {"measurement": "concentration at 2 h", "setting": "[1]; plasma, 2 hrs, Wild-type, read-out: Cplasma", "value": "1610 ± 720", "unit": "ng/mL"}, {"measurement": "concentration at 6 h", "setting": "[1]; plasma, 6 hrs, Bcrp1a/b-/-, read-out: Cplasma", "value": "1060 ± 400", "unit": "ng/mL"}, {"measurement": "concentration at 6 h", "setting": "[1]; plasma, 6 hrs, Mdr1a/b-/- Bcrp1a/b-/-, read-out: Cplasma", "value": "1030 ± 210", "unit": "ng/mL"}, {"measurement": "concentration at 6 h", "setting": "[1]; plasma, 6 hrs, Mdr1a/b-/-, read-out: Cplasma", "value": "870 ± 540", "unit": "ng/mL"}, {"measurement": "concentration at 6 h", "setting": "[1]; plasma, 6 hrs, Wild-type, read-out: Cplasma", "value": "870 ± 540", "unit": "ng/mL"}, {"measurement": "efflux transporter substrate status", "setting": "[1]; from brain distribution in transporter-deleted mice", "value": "a substrate for P-gp and Bcrp transporters"}, {"measurement": "fraction unbound at 4 h, 1 µM", "setting": "[2]; mouse brain homogenate, corrected for dilution, read-out: percentage of unbound drug in brain", "value": "0.0005 ± 0.0002"}, {"measurement": "fraction unbound at 4 h, 1 µM", "setting": "[2]; mouse plasma, read-out: percentage of unbound drug in plasma", "value": "0.006 ± 0.001"}]}
